# Several values for one entry are separate records, joined by “and”; a condition that tells them apart may be missing. Equal values may be shown once.
# Test system: PHA-producing microbial cells
# Experiment: flask cultures: effect of cell debris solutions and SDS on cell growth and PHA formation
# Format: cell-based
# Conditions: for Cell mass: 12 g/L glucose
# Method: Starting with cell mass of high PHA content (72% w/w), production of 1 kg of PHA, in a purity of 96.4 w/w, generates about 0.45 kg of cell debris as shown in the scheme reported above. Disposal of this large amount of waste in aqueous solution is a task of high cost, but could be avoided with additional benefit if the cell debris could be reused in PHA fermentation. In order to reveal the effect of cell debris on cell growth and PHA formation, microbial cultures were conducted in 500 mL flasks in parallel. The flask cultures were set up with the same glucose concentrations (10-20 g/L), the same volume of mineral solution (160 mL) as shown in Table 1 reported hereinbelow, and the same inoculum and size. After predetermined amount of cell debris solutions were added, the total volume of flask cultures was raised to 200 mL by adding pre-sterilized distilled and deionized water. The flasks were shaken at 200 rpm and 30 ° C. in a rotary incubator for 24 or 48 hours. The cell mass concentration and PHA content were determined as described in the literature (see Jian Yu and Lilian X. L. Chen (2006), “Cost-effective recovery and purification of polyhydroxyalkanoates by selective dissolution of cell mass”, Biotechnology Progress, 22:547-553). […]
# Surfactants such as SDS are optionally used in PHA recovery to disrupt cells and remove lipids and pigments from polyesters. They are soluble and left in the cell debris solutions, which may cause adverse effect on cell growth when the cell debris solution is reused in PHA fermentation. An acid-base cell debris solution containing 48.5 g/L of soluble solids and 5 g/L of SDS was used in this case. In the same flask cultures above (12 g/L of glucose), 8 mL of ABCDS was added to give 1.94 g/L of cell debris and 0.2 g/L of SDS. Additional SDS was also added to increase SDS concentration to 0.4, 0.6 and 0.8 g/L. Table 4 gives the results of cell growth and PHA formation at different surfactant levels. […] The benefit of cell debris at low SDS concentration (0.2-0.4 g/L) leads to 200-300% of increase in PHA concentration in comparison with the control.
structure (smiles),measurement,setting,value
"CCCCCCCCCCCCOS(=O)(=O)[O-].[Na+] [SDS, sodium dodecyl sulfate]",PHA formation vs control without cell debris and surfactant,SDS 0.2-0.6 g/L with 1.94 g/L cell debris,enhanced
same,Cell mass,"SDS 0.2 g/L with 1.94 g/L cell debris (ABCDS), 24 hours",3.69 g/L
same,Cell mass,"SDS 0.2 g/L with 1.94 g/L cell debris (ABCDS), 48 hours",4.99 g/L
same,Cell mass,"SDS 0.4 g/L with 1.94 g/L cell debris (ABCDS), 24 hours, sulfate",3.22 g/L and 3.33 g/L
same,Cell mass,"SDS 0.4 g/L with 1.94 g/L cell debris (ABCDS), 48 hours, sulfate",4.46 g/L and 4.62 g/L
same,Cell mass,"SDS 0.6 g/L with 1.94 g/L cell debris (ABCDS), 24 hours",2.70 g/L
same,Cell mass,"SDS 0.6 g/L with 1.94 g/L cell debris (ABCDS), 48 hours",3.51 g/L
same,PHA formation vs control without cell debris and surfactant,SDS 0.8 g/L with 1.94 g/L cell debris,damaged to a great extent
same,Cell mass,"SDS 0.8 g/L with 1.94 g/L cell debris (ABCDS), 24 hours",2.59 g/L
same,Cell mass,"SDS 0.8 g/L with 1.94 g/L cell debris (ABCDS), 48 hours",3.54 g/L

# From patent US20170002385A1, “USING CELL DEBRIS GENERATED FROM PHA RECOVERY FOR ENHANCED CELL GROWTH AND BIOPOLYESTER FORMATION” (BIO ON S.r.l., priority 2009, published 2017)
